System: C57BL/6 male mice
Assay: In vivo delivery study of lipid nucleic acid mixture (oral gavage, RT-qPCR of PGY-sRNA-26 in tissues)
Parameters: species or system mouse
Conditions: for oral delivery of single-stranded sRNA nucleic acids into mouse heart tissue: vs free uptake group; for oral delivery of single-stranded sRNA nucleic acids into mouse intestinal tissue: intestine; for overall delivery efficacy: delivering nucleic acids into each tissue and blood tested: 100 μg lipid:10 nmol PGY-sRNA-26, all tissues and blood tested
Protocol: 10 nmol of small RNA (as shown in Table 2) was dissolved in 400 μl of DEPC-treated water in a glass tube, 10 μl of the corresponding lipid stock solution was added such that the lipid mass in the system was 100 μg. The mixture was mixed thoroughly, heated in a 90° C. water bath for 15 minutes, and then cooled naturally to obtain the lipid nucleic acid mixture of lipid and small RNA.
C57BL/6 male mice, approximately 6 weeks old, weighing […], were obtained from Beijing Vital River Laboratory Animal Technology Co., Ltd. The mice were housed in the SPF-grade animal facility at the Animal Center of the Institute of Basic Medical Sciences, Chinese Academy of Medical Sciences. The mice were fasted for 12 hours before gavage administration.
The lipid nucleic acid mixture was prepared following the method described in Example 2. The resultant lipid nucleic acid mixture was orally administered to each mouse at a dose of 100 μg lipid:10 nmol single-stranded 3-methylated small RNA PGY-sRNA-26.
• 1) Blank group (n=4): mice were administered with 500 μl saline by gavage, this group served as a blank control; • 2) Free uptake group (n=4): mice were directly administered with small RNA PGY-sRNA-26 solution (10 nmol/mouse, 500 l) by gavage, this group served as a negative control; • 3) Lipid-treated group (n=4): mice were administered with 500 μl lipid nucleic acid mixture prepared in step 2 by gavage.
After 12 hours of gavage administration, 500 μl blood from the eyeball of each mouse was sampled, added to 1.5 ml Trizol Reagent LS (purchased from Invitrogen), thoroughly mixed for lysis. 3 ml of Trizol Reagent LSwas added to tissue samples and homogenized for complete lysis, wherein the sampled tissues include heart, liver, spleen, lung, kidney, stomach, intestine, brain, blood, femur, pancreas. RNAwas extracted from 1 ml of the blood or the tissue lysate following the steps below: • Centrifuge at 4° C., 12,000 rpm for 5 min, discard the precipitate, transfer Trizol to a new centrifuge tube; • Add chloroform at 200 μL chloroform/mL Trizol, shake well, stand at room temperature for 5 min; • Centrifuge at 4° C., 12,000 rpm for 15 min; • Take the upper aqueous phase to another centrifuge tube, add isopropanol at 0.4 mL isopropanol/mL Trizol, mix well, and stand at low temperature for 10-20 min; • Centrifuge at 4° C., 12,000 rpm for 15 min, discard the supernatant, RNA precipitated at the bottom of the tube; • Add 1 mL of 75% ethanol, gently shake the centrifuge tube, suspend the precipitate; • Centrifuge at 4° C., 12,000 rpm for 15 min, discard the supernatant, add 1 mL of 75% ethanol, gently shake the centrifuge tube, suspend the precipitate; • Centrifuge at 4° C., 12,000 rpm for 15 min, discard the supernatant, air-dry at room temperature, dissolve RNA samples in 50 μL RNase-free H2O, measure OD value to quantify RNA concentration. 3.3 Reverse Transcription of sRNA to cDNA:
sRNA was reverse transcribed to cDNA using the High-Capacity cDNA Reverse Transcription Kit (Applied Biosystems, cat. no. 4368813) by stem-loop method (see, e.g., “Real-time quantification of microRNAs by stem-loop RT-PCR, Nucleic Acids Res. 2005 Nov. 27; 33(20):e179”, incorporated herein by reference). The reverse transcription system is as follows: Template RNA (200 ng/μL) 10 μL, 10×RT Buffer 2.0 μL, 25×dNTP Mix (100 mM) 0.8 μL, U6 RT stem-loop primer (10 μM) 2.0 μL, PGY-sRNA-26 RT stem-loop primer (10 μM) 2.0 μL, MultiScribe™ Reverse Transcriptase (50 U/μL) 1.0 μL, RNAse Inhibitor (40 U/μL) 1.0 μL, nuclease-free H2O 1.2 μL. After transient centrifugation, the reverse transcription system was placed in a PCR machine with the following reaction conditions: (1) 25° C., 10 min; (2) 37° C., 120 min; (3) 85° C., 5 min; (4) 4° C., stop reaction. After the reaction, add 20 μL RNAse-free ddH2O, adjust the final volume to 40 μL. […]

[1] = 100 μg lipid:10 nmol PGY-sRNA-26, sampled after 12 hours

Structure (SMILES)	oral delivery of single-stranded sRNA nucleic acids into mouse blood [1]	oral delivery of single-stranded sRNA nucleic acids into mouse brain tissue [1]	oral delivery of single-stranded sRNA nucleic acids into mouse femur [1]	oral delivery of single-stranded sRNA nucleic acids into mouse heart tissue [1]	oral delivery of single-stranded sRNA nucleic acids into mouse intestinal tissue [1]	oral delivery of single-stranded sRNA nucleic acids into mouse kidney tissue [1]	oral delivery of single-stranded sRNA nucleic acids into mouse liver tissue [1]	oral delivery of single-stranded sRNA nucleic acids into mouse spleen tissue [1]	oral delivery of single-stranded sRNA nucleic acids into mouse stomach tissue [1]	overall delivery efficacy: delivering nucleic acids into each tissue and blood tested	oral delivery of single-stranded sRNA nucleic acids into mouse lung tissue [1]	oral delivery of single-stranded sRNA nucleic acids into mouse pancreatic tissue (100 μg lipid:10 nmol PGY-sRNA-26, sampled after 12 hours, pancreas)
O=C(O)CCCCCCCCCCCCCC(=O)O [Lipid 572, pentadecanedioic acid]	can effectively orally deliver	can effectively orally deliver	can effectively orally deliver	can effectively orally deliver	can effectively orally deliver	can effectively orally deliver	can effectively orally deliver	can effectively orally deliver	can effectively orally deliver			
N[C@@H](CCCC(=O)O)C(=O)O [Lipid 595, (2S)-2-aminohexanedioic acid]	can effectively orally deliver	can effectively orally deliver	can effectively orally deliver	can effectively orally deliver	can effectively orally deliver	can effectively orally deliver	can effectively orally deliver	can effectively orally deliver	can effectively orally deliver	best delivery efficacy	can effectively orally deliver	
CCCCC/C=C\C/C=C\C/C=C\C/C=C\CCCC(=O)NCCCCCO [Lipid 807, (5Z,8Z,11Z,14Z)-N-(5-hydroxypentyl)icosa-5,8,11,14-tetraenamide]	can effectively orally deliver	can effectively orally deliver	can effectively orally deliver	can effectively orally deliver	can effectively orally deliver	can effectively orally deliver	can effectively orally deliver	can effectively orally deliver	can effectively orally deliver		can effectively orally deliver	can effectively orally deliver
O=C(O)C[C@H]1CCC(=O)[C@@H]1C/C=C\CCO [Lipid 543]	can effectively orally deliver	can effectively orally deliver	can effectively orally deliver	can effectively orally deliver	can effectively orally deliver	can effectively orally deliver	can effectively orally deliver	can effectively orally deliver	can effectively orally deliver	best delivery efficacy	can effectively orally deliver	
CCCCCC(=O)OCCCC [Lipid 613, butyl hexanoate]	can effectively orally deliver	can effectively orally deliver	can effectively orally deliver	can effectively orally deliver	can effectively orally deliver	can effectively orally deliver	can effectively orally deliver	can effectively orally deliver	can effectively orally deliver	best delivery efficacy	can effectively orally deliver	
CC1(O)CCCC1 [Lipid 503]	can effectively orally deliver	can effectively orally deliver			can effectively orally deliver	can effectively orally deliver	can effectively orally deliver	can effectively orally deliver	can effectively orally deliver		can effectively orally deliver	
CCCCCCCCCCCCCCCC(N)=O [Lipid 599, hexadecanamide]	can effectively orally deliver	can effectively orally deliver	can effectively orally deliver	can effectively orally deliver	can effectively orally deliver	can effectively orally deliver	can effectively orally deliver	can effectively orally deliver	can effectively orally deliver	best delivery efficacy	can effectively orally deliver	

From patent US20250073255A1, “USE OF FA-TYPE LIPID COMPOUNDS IN PREPARATION OF NUCLEIC ACID DELIVERY REAGENT AND RELATED PRODUCT” (BEIJING BAISHIKANG PHARMACEUTICAL TECHNOLOGY (BSJPHARMA) …, priority 2021, published 2025)
